In ChEMBL document CHEMBL5113515, “The Discovery of GSK3640254, a Next-Generation Inhibitor of HIV-1 Maturation” (J Med Chem, 2022):

Key:
[1] = system: Human immunodeficiency virus 1; assay: Antiviral activity against HIV1 wild type subtype B NL (4 to 3) harbouring V362/Q369/V370/T371 transfected in human HEK293T cells by dual-luciferase reporter assay; type: functional, organism-based; conditions: Human immunodeficiency virus 1, HEK-293T
CYP3A4 = CYP3A4 (Homo sapiens, UniProt P08684); assay: Induction of CYP3A4 in human hepatocyte; type: ADME, cell-based; conditions: hepatocytes
[2] = Half life in overnight fasted cynomolgus monkey at 1 mg/kg, iv; type: ADME, organism-based, Macaca fascicularis; conditions: in vivo
[3] = Drug concentration in overnight fasted Sprague-Dawley rat plasma at 5 mg/kg, po or 1 mg/kg, iv measured after 24 hrs; type: ADME, organism-based
[4] = Plasma protein binding in human by ultracentrifugation; type: ADME, cell-free; conditions: read-out: PPB (converted)
[5] = Oral bioavailability in overnight fasted cynomolgus monkey using spray-dried dispersion at 2 mg/kg; type: ADME, organism-based, Macaca fascicularis; conditions: in vivo
[6] = system: Human immunodeficiency virus 1; assay: Antiviral activity against HIV1 harbouring deltaV370/T371A mutant infected in human MT2 cells measured after 4 to 5 days by dual-luciferase reporter assay; type: functional, organism-based; conditions: mt2
[7] = system: Human immunodeficiency virus 1; assay: Antiviral activity against HIV1 NL (4 to 3) harbouring V362I mutant transfected in human HEK293T cells by dual-luciferase reporter assay; type: functional, organism-based; conditions: Human immunodeficiency virus 1, HEK-293T
[8] = Metabolic stability in dog liver microsomes assessed as half life in presence of NADPH at 0.5 uM by LC-MS/MS analysis; type: ADME, Canis lupus familiaris, Microsome
[9] = Oral bioavailability in overnight fasted Beagle dog using spray-dried dispersion at 2 mg/kg; type: ADME, organism-based, Canis lupus familiaris; conditions: in vivo
[10] = Drug concentration in overnight fasted mouse plasma at 5 mg/kg, po or 1 mg/kg, iv measured after 24 hrs; type: ADME, organism-based
Cytochrome P450 1A2 = molecular target: T1, Cytochrome P450 1A2 (Homo sapiens, UniProt P05177); assay: Inhibition of CYP1A2 (unknown origin); type: ADME
T1 sequence (P05177 whole entry): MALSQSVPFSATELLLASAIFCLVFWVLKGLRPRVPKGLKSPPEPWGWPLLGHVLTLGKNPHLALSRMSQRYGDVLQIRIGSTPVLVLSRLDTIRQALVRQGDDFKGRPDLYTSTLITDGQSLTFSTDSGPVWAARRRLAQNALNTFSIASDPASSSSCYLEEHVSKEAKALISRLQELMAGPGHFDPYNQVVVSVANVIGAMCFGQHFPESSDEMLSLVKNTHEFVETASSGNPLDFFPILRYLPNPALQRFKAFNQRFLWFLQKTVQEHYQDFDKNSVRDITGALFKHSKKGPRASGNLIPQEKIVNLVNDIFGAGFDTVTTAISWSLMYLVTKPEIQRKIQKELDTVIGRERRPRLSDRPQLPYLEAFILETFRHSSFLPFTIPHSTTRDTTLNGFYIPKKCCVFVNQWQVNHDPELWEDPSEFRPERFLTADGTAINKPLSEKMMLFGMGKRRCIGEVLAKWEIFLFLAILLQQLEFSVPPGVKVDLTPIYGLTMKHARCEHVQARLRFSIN

[11] = Lipophilicity, log D of the compound at pH 6.5; type: physicochemical; conditions: buffer
[12] = system: Human immunodeficiency virus 1; assay: Antiviral activity against HIV1 harbouring V362I/V370A mutant infected in human MT2 cells measured after 4 to 5 days by dual-luciferase reporter assay; type: functional, organism-based; conditions: Human immunodeficiency virus 1, MT2
[13] = AUC(0 to t) in overnight fasted Beagle dog at 2 mg/kg, po or 1 mg/kg, iv; type: ADME, organism-based, Canis lupus familiaris; design: dose 2 mg/kg, route po; conditions: in vivo
CYP2B6 = molecular target: T2, CYP2B6 (Homo sapiens, UniProt P20813); assay: Induction of CYP2B6 in human hepatocyte; type: ADME, cell-based; conditions: hepatocytes
T2 sequence (P20813 whole entry): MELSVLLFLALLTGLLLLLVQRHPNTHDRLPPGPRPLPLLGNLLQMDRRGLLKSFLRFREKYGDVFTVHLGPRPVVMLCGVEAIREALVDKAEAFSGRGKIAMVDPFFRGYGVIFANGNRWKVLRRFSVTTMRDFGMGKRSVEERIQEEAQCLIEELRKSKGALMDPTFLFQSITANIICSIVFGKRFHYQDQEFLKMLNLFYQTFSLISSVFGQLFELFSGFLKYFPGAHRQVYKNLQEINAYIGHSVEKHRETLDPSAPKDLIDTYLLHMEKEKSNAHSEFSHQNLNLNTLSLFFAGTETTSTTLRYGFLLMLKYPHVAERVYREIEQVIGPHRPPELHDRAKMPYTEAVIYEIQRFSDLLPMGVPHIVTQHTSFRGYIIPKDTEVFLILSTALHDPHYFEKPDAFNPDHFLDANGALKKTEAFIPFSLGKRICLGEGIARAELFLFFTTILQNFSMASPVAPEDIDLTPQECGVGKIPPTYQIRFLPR

[14] = Volume of distribution at steady state in overnight fasted cynomolgus monkey at 2 mg/kg, po or 1 mg/kg, iv; type: ADME, organism-based, Macaca fascicularis; conditions: in vivo
[15] = Cmax in overnight fasted mouse at 5 mg/kg, po or 1 mg/kg, iv; type: ADME, organism-based; design: dose 5 mg/kg, route po; conditions: in vivo
[16] = system: Human immunodeficiency virus 1; assay: Antiviral activity against HIV1 wild type subtype B NL (4 to 3) transfected in human HEK293T cells by dual-luciferase reporter assay; type: functional, organism-based; conditions: Human immunodeficiency virus 1, HEK-293T
[17] = Drug concentration in overnight fasted Beagle dog plasma at 2 mg/kg, po or 1 mg/kg, iv measured after 24 hrs; type: ADME, organism-based, Canis lupus familiaris
Cytochrome P450 2C8 = molecular target: T3, Cytochrome P450 2C8 (Homo sapiens, UniProt P10632); assay: Inhibition of CYP2C8 (unknown origin); type: ADME
T3 sequence (P10632 whole entry): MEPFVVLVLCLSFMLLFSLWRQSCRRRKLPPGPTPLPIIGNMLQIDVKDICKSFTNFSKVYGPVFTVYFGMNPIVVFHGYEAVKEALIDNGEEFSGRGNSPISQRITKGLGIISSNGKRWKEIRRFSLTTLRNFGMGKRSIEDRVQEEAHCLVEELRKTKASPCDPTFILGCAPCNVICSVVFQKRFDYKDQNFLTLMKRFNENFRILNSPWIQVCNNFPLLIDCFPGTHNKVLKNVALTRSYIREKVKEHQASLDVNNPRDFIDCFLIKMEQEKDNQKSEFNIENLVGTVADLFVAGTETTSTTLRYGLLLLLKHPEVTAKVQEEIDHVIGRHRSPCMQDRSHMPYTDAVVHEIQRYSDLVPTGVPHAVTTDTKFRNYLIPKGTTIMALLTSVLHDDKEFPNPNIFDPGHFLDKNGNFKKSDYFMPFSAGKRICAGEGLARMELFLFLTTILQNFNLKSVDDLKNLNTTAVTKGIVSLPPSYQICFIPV

[18] = Half life in human liver microsomes at […] measured upto 300 mins by LC-MS/MS analysis; type: ADME, Microsome
[19] = Oral bioavailability in overnight fasted Sprague-Dawley rat using spray-dried dispersion at 5 mg/kg; type: ADME, organism-based; conditions: in vivo
[20] = AUC(0 to t) in overnight fasted mouse at 5 mg/kg, po or 1 mg/kg, iv; type: ADME, organism-based; design: dose 5 mg/kg, route po; conditions: in vivo
CYP1A2 = molecular target: T4, CYP1A2 (Homo sapiens, UniProt P05177); assay: Induction of CYP1A2 in human hepatocyte; type: ADME, cell-based; conditions: hepatocytes
T4 sequence (P05177 whole entry): T1 sequence (P05177 whole entry)

[21] = Volume of distribution at steady state in overnight fasted mouse at 5 mg/kg, po or 1 mg/kg, iv; type: ADME, organism-based; conditions: in vivo
[22] = Cmax in overnight fasted Sprague-Dawley rat at 5 mg/kg, po or 1 mg/kg, iv; type: ADME, organism-based; design: dose 5 mg/kg, route po; conditions: in vivo

Chain of CYP3A4 (P08684 whole entry): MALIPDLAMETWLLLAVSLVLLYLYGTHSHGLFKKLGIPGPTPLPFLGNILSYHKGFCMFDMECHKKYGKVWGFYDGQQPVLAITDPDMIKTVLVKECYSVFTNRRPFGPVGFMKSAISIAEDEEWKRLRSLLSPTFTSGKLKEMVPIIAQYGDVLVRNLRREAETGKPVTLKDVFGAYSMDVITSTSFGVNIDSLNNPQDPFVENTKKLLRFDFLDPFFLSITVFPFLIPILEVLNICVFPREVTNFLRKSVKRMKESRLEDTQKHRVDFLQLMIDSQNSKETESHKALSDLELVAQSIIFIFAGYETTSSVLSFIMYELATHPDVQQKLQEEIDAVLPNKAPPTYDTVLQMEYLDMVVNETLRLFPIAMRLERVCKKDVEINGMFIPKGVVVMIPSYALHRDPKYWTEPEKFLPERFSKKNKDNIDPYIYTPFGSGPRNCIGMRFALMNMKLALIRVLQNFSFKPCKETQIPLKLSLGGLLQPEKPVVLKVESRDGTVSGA

## C=C(C)[C@@H]1CC[C@]2(NCCN3CCS(=O)(=O)CC3)CC[C@]3(C)[C@H](CC[C@@H]4[C@@]5(C)CC=C(C6=CC[C@@](CF)(C(=O)O)CC6)C(C)(C)[C@@H]5CC[C@]43C)[C@@H]12 [FIPRAVIRIMAT]
[1]
  EC50: 1.1 nM
CYP3A4
  EC50: > 5000 nM
[2]
  half-life: 5.3 h
[3]
  concentration at 24 h: 21.8 nM
[4]
  fraction unbound: 0.14
[5]
  bioavailability: 28%
[6]
  EC50: 3.6 nM
[7]
  EC50: 2.7 nM
[8]
  half-life at 0.5 µM: > 2 h
[9]
  F: 117%
[10]
  concentration at 24 h: 179 nM
Cytochrome P450 1A2
  IC50: > 13300 nM
[11]
  logD: 4.9
[12]
  EC50: 3 nM
[13]
  AUCt: 4.3 µM·h
CYP2B6
  EC50: > 5000 nM
[14]
  Vdss: 0.43 L/kg
[15]
  Cmax: 2700 nM
[16]
  EC50: 1.9 nM
[17]
  concentration at 24 h: 1640 nM
Cytochrome P450 2C8
  IC50: > 13300 nM
[18]
  half-life: > 24 h
[19]
  bioavailability: 40%
[20]
  AUC(0-t): 29.9 µM·h
CYP1A2
  EC50: > 5000 nM
[21]
  Vdss: 1 L/kg
[22]
  Cmax: 900 nM
